Patent publication US11266655B2, “Methods and compositions for treating urea cycle disorders” (Camp4 Therapeutics Corporation, priority 2019, dated 2022)
Where “and” joins values, the source holds several entries; their conditions need not be identical. Identical values can stand only once.

Legend:
[1] = tested on: CPS1; assay: RNA-seq of compound-treated primary human hepatocytes, CPS1 expression; format: cell-based; details: primary human hepatocytes; for Relative CPS1 level vs Untreated (±Standard Deviation): triplicate (Table 19, FIG. 11); for CPS1 expression, Fold change (Log 2) vs untreated: RNA-seq
[2] = tested on: ASS1; assay: RNA-seq of compound-treated primary human hepatocytes, ASS1 expression; format: cell-based; details: primary human hepatocytes; for Fold change (Log 2) vs untreated, ASS1 expression: RNA-seq (Table 4); for Relative ASS1 level vs Untreated (±Standard Deviation): 10 μM, triplicate (Table 15, FIG. 7)
[3] = tested on: ARG1; assay: RNA-seq of compound-treated primary human hepatocytes, ARG1 expression; format: cell-based; details: for Relative ARGI level vs Untreated (±Standard Deviation) / Fold change (Log 2) vs untreated, ARG1 expression: primary human hepatocytes; for Relative ARGI level vs Untreated (±Standard Deviation): triplicate (Table 17, FIG. 9); for Fold change (Log 2) vs untreated, ARG1 expression: RNA-seq (Table 7)
[4] = tested on: urea cycle genes; assay: RNA-seq of primary human hepatocytes, compounds that modulate multiple urea cycle-related genes; format: cell-based; details: primary human hepatocytes, RNA-seq; for Up-regulated Genes: urea cycle-related genes significantly increased (Table 10)
[5] = tested on: OTC; assay: JAK inhibitors at 0.3 and 3 μM in primary human hepatocytes, OTC mRNA fold change; format: cell-based; details: fold change vs DMSO
Experimental: (§1) Additional small molecules that inhibit JAK1, JAK2, JAK3, or a combination of the JAK proteins were tested in primary human hepatocytes as described in Example 2. JAK inhibitors were tested in triplicate at 0.3 μM and 3 μM. The results are shown as the fold change (mRNA FC) in the mRNA levels of OTC and CPS1 genes after treatment compared to an untreated control (DMSO) and the standard deviation (SD).

[6] = tested on: CPS1; assay: JAK inhibitors at 0.3 and 3 μM in primary human hepatocytes, CPS1 mRNA fold change; format: cell-based; details: fold change vs DMSO
Experimental: as §1

[7] = tested on: NAGS; format: cell-based, human
[8] = tested on: SLC25A15; assay: RNA-seq of compound-treated primary human hepatocytes, SLC25A15 expression; format: cell-based; details: for Relative SLC25A15 level vs Untreated (±Standard Deviation): triplicate (Table 24, FIG. 16A-B)
[9] = 10 μM, primary human hepatocytes
[10] = Example 11, relative mRNA vs DMSO

S=C(NCc1ccc2c(c1)OCO2)N1CCN(c2ncnc3c2oc2ccccc23)CC1 [Amuvatinib] was tested, and the “Relative CPS1 level vs Untreated (±Standard Deviation)” value ([1]; 10 μM) was 2.07 ± 0.42, the “Fold change (Log 2) vs untreated, ASS1 expression” value [2] was 0.69 Log 2 and the “Relative ARGI level vs Untreated (±Standard Deviation)” value ([3]; 10 μM) was 1.71 ± 0.19. For the same molecule, the “Fold change (Log 2) vs untreated, ARG1 expression” value [3] was 2.5 Log 2, the “number of urea cycle genes whose expression was significantly up-regulated” value [4] was “five” and the “Up-regulated Genes” value [4] was “CPS1, ASS1, ASL, OTC, ARG1”.

With CCn1c(C(=O)N(C2CC2)C2CC2)cc2c3c(ncn3C)c(Nc3cc(C)n(C)n3)nc21 [BMS-911543] the “OTC mRNA FC” value ([5]; 0.3 uM) was 1.94, the “OTC mRNA FC” value ([5]; 3 uM) was 2.7 and the “CPS1 mRNA FC” value ([6]; 0.3 uM) was 1.31 and 1.03. For the same molecule, the “CPS1 mRNA FC” value ([6]; 3 uM) was 1.65.

In the case of CCS(=O)(=O)N1CC(CC#N)(n2cc(-c3ncnc4[nH]ccc34)cn2)C1 [Baricitinib], the “OTC mRNA FC” value ([5]; 0.3 uM) is reported as 2.56, the “OTC mRNA FC” value ([5]; 3 uM) is reported as 2.85 and the “CPS1 mRNA FC” value ([6]; 0.3 uM) is reported as 1.4. The “CPS1 mRNA FC” value ([6]; 3 uM) was 1.38.

With CC[C@@](C)(Nc1ccnc(-c2c[nH]c3ncccc23)n1)C(=O)NCC(F)(F)F [Decernotinib] the “OTC mRNA FC” value ([5]; 0.3 uM) was 1.01, the “OTC mRNA FC” value ([5]; 3 uM) was 2.18 and the “CPS1 mRNA FC” value ([6]; 0.3 uM) was 1.07. For the same molecule, the “CPS1 mRNA FC” value ([6]; 3 uM) was 1.28.

For C[C@]12CC[C@H]3[C@@H](CCC4=CC(=O)CC[C@@]43C)[C@@H]1CC[C@@H]2C(=O)CO [Deoxycorticosterone], the “CPS1 expression, Fold change (Log 2) vs untreated” value [1] was 3.79 Log 2, the “Fold change (Log 2) vs untreated, ASS1 expression” value [2] was 0.6 Log 2 and the “Fold change (Log 2) vs untreated, ARG1 expression” value [3] was 1.37 Log 2. For the same molecule, the “number of urea cycle genes whose expression was significantly up-regulated” value [4] was “four” and the “Up-regulated Genes” value [4] was “CPS1, ASS1, ARG1, SLC25A15”.

For Cc1cnc(Nc2ccc(OCCN3CCCC3)cc2)nc1Nc1cccc(S(=O)(=O)NC(C)(C)C)c1 [Fedratinib], the “OTC mRNA FC” value ([5]; 0.3 uM) was 1.09, the “OTC mRNA FC” value ([5]; 3 uM) was 1.49 and the “CPS1 mRNA FC” value ([6]; 0.3 uM) was 0.93. The “CPS1 mRNA FC” value ([6]; 3 uM) was 0.95.

With COc1cc2c(Oc3ccc(NC(=O)C4(C(=O)Nc5ccc(F)cc5)CC4)cc3F)ccnc2cc1OCCCN1CCOCC1 [Foretinib] the “Relative CPS1 level vs Untreated (±Standard Deviation)” value ([1]; 3 μM) was 1.37 ± 0.30, the “Relative CPS1 level vs Untreated (±Standard Deviation)” value ([1]; 10 μM) was 1.75 ± 0.30 and the “Relative ASS1 level vs Untreated (±Standard Deviation)” value [2] was 1.82 ± 0.11. For the same molecule, the “Relative NAGS level vs Untreated (±Standard Deviation)” value ([7]; 10 μM, primary human hepatocytes, triplicate (Table 21, FIG. 13)) was 1.45 ± 0.38, the “Relative ARGI level vs Untreated (±Standard Deviation)” value ([3]; 3 μM) was 1.40 ± 0.00 and the “Relative ARGI level vs Untreated (±Standard Deviation)” value ([3]; 10 μM) was 1.61 ± 0.12. The “Relative SLC25A15 level vs Untreated (±Standard Deviation)” value [8, 9] was 1.97 ± 0.15.

O=C(Nc1nc2cccc(-c3ccc(CN4CCS(=O)(=O)CC4)cc3)n2n1)C1CC1 [GLPG0634/Filgotinib] was tested, and the “OTC mRNA FC” value ([5]; 0.3 uM) was 1.12, the “OTC mRNA FC” value ([5]; 3 uM) was 2.11 and the “CPS1 mRNA FC” value ([6]; 0.3 uM) was 1.08. For the same molecule, the “CPS1 mRNA FC” value ([6]; 3 uM) was 1.56.

In the case of COc1cc2ncnc(Nc3ccc(O)cc3)c2cc1OC [JANEX-1], the “OTC mRNA FC” value ([5]; 0.3 uM) is reported as 0.85, the “OTC mRNA FC” value ([5]; 3 uM) is reported as 1.1 and the “CPS1 mRNA FC” value ([6]; 0.3 uM) is reported as 0.86. For the same molecule, the “CPS1 mRNA FC” value ([6]; 3 uM) was 1.01.

CC(=O)NCC(=O)N1[C@@H]2CC[C@H]1c1ccc(Nc3ncc(C(F)(F)F)c(NC4CCC4)n3)cc12 [PF-3814735] was tested, and the “Relative CPS1 level vs Untreated (±Standard Deviation)” value ([1]; 3 μM) was 2.25 ± 0.74, the “Relative ASS1 level vs Untreated (±Standard Deviation)” value [2] was 1.56 ± 0.17 and the “Relative ARGI level vs Untreated (±Standard Deviation)” value ([3]; 1 μM) was 1.44 ± 0.02. For the same molecule, the “Relative ARGI level vs Untreated (±Standard Deviation)” value ([3]; 3 μM) was 2.45 ± 0.43, the “increase in ARG1 gene expression (Tables 17, 18, FIG. 9, 10)” value [3, 10] was “greatest increase” and the “Relative SLC25A15 level vs Untreated (±Standard Deviation)” value ([8]; 1 μM, primary human hepatocytes) was 1.35 ± 0.11. The “Relative SLC25A15 level vs Untreated (±Standard Deviation)” value ([8]; 3 μM, primary human hepatocytes) was 3.06 ± 0.51, the “Relative SLC25A15 level vs Untreated (±Standard Deviation)” value [8, 9] was 2.41 ± 0.14 and the “Increase in SLC25A15 gene expression (qualitative)” value [8, 10] was “greatest increase”.

B1: GDF2 (BMP9): member of BMP family and the TGF-B superfamily (protein, UniProt Q9UK05 320-429, looked up)
Growth/differentiation factor …: SAGAGSHCQKTSLRVNFEDIGWDSWIIAPKEYEAYECKGGCFFPLADDVTPTKHAIVQTLVHLKFPTKVGKACCVPTKLSPISVLYKDDMGVPTLKYHYEGMSVAECGCR
In the case of B1, the “CPS1 expression, Fold change (Log 2) vs untreated” value [1] is reported as 3.46 Log 2, the “Fold change (Log 2) vs untreated, ASS1 expression” value [2] is reported as 1.34 Log 2 and the “Fold change (Log 2) vs untreated, NAGS expression” value [7] is reported as 0.63 Log 2. For the same molecule, the “Fold change (Log 2) vs untreated, ARG1 expression” value [3] was 1.79 Log 2, the “Fold change (Log 2) vs untreated, SLC25A15 expression” value ([8]; primary human hepatocytes, RNA-seq (Table 8)) was 1.09 Log 2 and the “number of urea cycle genes whose expression was significantly up-regulated” value [4] was “five”. For the same molecule, the “Up-regulated Genes” value [4] was “ASS1, CPS1, NAGS, ARG1, SLC25A15”.
